Where a SMILES comes first, the peptide text is derived from it.

Here are results for two compounds from US20130259884A1, “PEPTIDES” ([…] SL, priority 2010, published 2013).

The nature of the data set: Water solubility of peptides when preparing stock solutions. Format: physicochemical. The note with it: stock solution in sterile distilled water or 100% DMSO; read-out: solubility of peptide (water soluble or water insoluble, dissolved in DMSO). Put shortly: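 Water-soluble peptides from water stocks and insoluble ones from 100% DMSO stocks (50 mg/ml), each diluted to 2 mg/ml in water then into media. Added singly or as pools to 350,000 PBMC in anti-IL-4 ELISPOT wells at 10 μg/ml final per peptide. Identically diluted media-only controls.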

The solubility is the concentration that dissolves in the medium under given conditions. In the case of `CC(C)C[C@H](NC(=O)[C@H](Cc1ccccc1)NC(=O)[C@H](CO)NC(=O)[C@H](CC(N)=O)NC(=O)[C@H](CCC(=O)O)NC(=O)CNC(=O)[C@@H](NC(=O)[C@H](CO)NC(=O)[C@H](Cc1ccc(O)cc1)NC(=O)[C@H](Cc1c[nH]c2ccccc12)NC(=O)[C@H](CCCCN)NC(=O)[C@H](Cc1c[nH]cn1)NC(=O)[C@@H](N)CC(=O)O)C(C)C)C(=O)N[C@@H](CC(=O)O)C(=O)N[C@@H](Cc1ccccc1)C(=O)O` [Peptide L10-2.01, DHKWYSVGENSFLDF] (H-DHKWYSVGENSFLDF-OH), the solubility was greater than 2500 µg/mL.

On to `CC[C@H](C)[C@H](NC(=O)[C@H](CC(=O)O)NC(=O)[C@H](CC(=O)O)NC(=O)[C@H](CO)NC(=O)[C@@H](NC(=O)[C@H](CCCCN)NC(=O)[C@H](CCC(N)=O)NC(=O)[C@@H](N)CCCCN)C(C)C)C(=O)N[C@H](C(=O)N[C@@H](Cc1ccc(O)cc1)C(=O)N[C@H](C(=O)N[C@@H](C)C(=O)N[C@H](C(=O)N[C@@H](C)C(=O)N[C@H](C(=O)O)[C@@H](C)O)[C@@H](C)O)C(C)C)[C@@H](C)O` [Peptide L10-3, KQKVSDDITYVATAT] (H-KQKVSDDITYVATAT-OH), for which the solubility was greater than 2500 µg/mL.
